Key:
[1] = test system: Gram-negative and Gram-positive bacteria; assay: Antibacterial activity, overall statement; format: cell-based
Method: The antibacterial spectra of 3-O-demethylistamycin B.sesquicarbonate and 3-O-demethyl-2"-N-formimidoylistamycin B.disulphate.trihydrate are shown in Table 2, along with that of istamycin B for comparison purposes.
*^1 Determined according to a standard serial dilution method on
nutrient agar plates which were incubated at 37° C. for 17 hours.

[2] = in vivo; settings: mouse, iv
[3] = test system: mice; assay: Acute toxicity by intravenous injection in mice
[4] = test system: Pseudomonas aeruginosa; settings: relative to istamycin A; earlier filings; cited from earlier work

Compound	antibacterial activity (in words) [1]	MTD [2]	toxicity (in words) [3]	antibacterial activity against Pseudomonas aeruginosa compared with istamycin A [4]
CNCC1CCC(N)C(OC2C(N)CC(O)C(NC)C2O)O1 (stereo not shown) [3-O-Demethylistamycin BO]	poor antibacterial activity	160 mg/kg	low toxicity	–
di-N^6',O^3 -demethylistamycin A	–	–	–	significantly higher than that of istamycin A

From patent publication US4499083A, “3-O-Demethyl derivatives of the istamycin B series of compounds” (Zaidan Hojin Biseibutsu Kagaku Kenkyu Kai, priority 1980, dated 1985)
